Measurements as given in patent US20140120232A1, “ACID TASTE/ACID SMELL-REDUCING AGENT” (T. HASEGAWA CO., LTD., priority 2011, published 2014).

Assay: Sensory evaluation of yogurt containing the agent
Conditions: ten panels
Experimental: Sensory evaluation of each drink was carried out by ten panels. […] The piercing aroma characteristic to aldehydes is a characteristic aroma common to every aldehyde and refers to an irritant off-smell giving an image of deteriorated oils and fats, soap, metals, Houttuynia cordata, etc. The judgment of smell was performed by comparing the effects at different concentrations of the acid taste and/or acid smell-reducing agent, and a concentration giving the highest acid taste/acid smell quality was selected.
A yogurt base material as a control was prepared by mixing 100 parts by mass of commercially available plain yogurt (milk non-fat solids: 9.5%, milk fat component: 3.0%) with 0.1 parts by mass of acetic acid (glacial acetic acid: food additive, manufactured by Junsei Chemical Co., Ltd.) with stirring. To the resulting mixture was added (Z,Z)-4,7-tridecadienal as the acid taste and/or acid smell-reducing agent of the present invention in concentrations shown in the following Table 9 to give yogurt containing the agent, followed by sensory evaluation as in Example 1.

Q: What does the source list for `CCCCC/C=C\C/C=C\CCC=O` [(Z,Z)-4,7-tridecadienal]?
A: A: number of panels, acid taste/acid smell extreme and cause irritation (0.005 ppt): 10; B: number of panels, acid taste/acid smell slightly strong and slightly cause irritation (0.005 ppt): 0; C: number of panels, acid taste/acid smell slightly unpleasant (0.005 ppt): 0; Flavor judgment: number of panels who judged acid taste/acid smell quality the highest (0.005 ppt): 0; N: number of panels, irritation of acid reduced to give a mild acid taste (0.005 ppt): 0; X: number of panels, acid taste reduced but piercing odor characteristic to aldehydes unpleasant (0.005 ppt): 0; A: number of panels, acid taste/acid smell extreme and cause irritation (0.02 ppt): 8; B: number of panels, acid taste/acid smell slightly strong and slightly cause irritation (0.02 ppt): 2; C: number of panels, acid taste/acid smell slightly unpleasant (0.02 ppt): 0; Flavor judgment: number of panels who judged acid taste/acid smell quality the highest (0.02 ppt): 0; N: number of panels, irritation of acid reduced to give a mild acid taste (0.02 ppt): 0; X: number of panels, acid taste reduced but piercing odor characteristic to aldehydes unpleasant (0.02 ppt): 0; A: number of panels, acid taste/acid smell extreme and cause irritation (0.1 ppt): 5; B: number of panels, acid taste/acid smell slightly strong and slightly cause irritation (0.1 ppt): 3; C: number of panels, acid taste/acid smell slightly unpleasant (0.1 ppt): 2; Flavor judgment: number of panels who judged acid taste/acid smell quality the highest (0.1 ppt): 0; N: number of panels, irritation of acid reduced to give a mild acid taste (0.1 ppt): 0; X: number of panels, acid taste reduced but piercing odor characteristic to aldehydes unpleasant (0.1 ppt): 0; A: number of panels, acid taste/acid smell extreme and cause irritation (0.2 ppt): 4; B: number of panels, acid taste/acid smell slightly strong and slightly cause irritation (0.2 ppt): 3; C: number of panels, acid taste/acid smell slightly unpleasant (0.2 ppt): 3; Flavor judgment: number of panels who judged acid taste/acid smell quality the highest (0.2 ppt): 0; N: number of panels, irritation of acid reduced to give a mild acid taste (0.2 ppt): 0; X: number of panels, acid taste reduced but piercing odor characteristic to aldehydes unpleasant (0.2 ppt): 0; A: number of panels, acid taste/acid smell extreme and cause irritation (0.5 ppt): 1; B: number of panels, acid taste/acid smell slightly strong and slightly cause irritation (0.5 ppt): 1; C: number of panels, acid taste/acid smell slightly unpleasant (0.5 ppt): 2; Flavor judgment: number of panels who judged acid taste/acid smell quality the highest (0.5 ppt): 1; N: number of panels, irritation of acid reduced to give a mild acid taste (0.5 ppt): 6; X: number of panels, acid taste reduced but piercing odor characteristic to aldehydes unpleasant (0.5 ppt): 0; A: number of panels, acid taste/acid smell extreme and cause irritation (1 ppb): 0; B: number of panels, acid taste/acid smell slightly strong and slightly cause irritation (1 ppb): 0; C: number of panels, acid taste/acid smell slightly unpleasant (1 ppb): 3; Flavor judgment: number of panels who judged acid taste/acid smell quality the highest (1 ppb): 0; N: number of panels, irritation of acid reduced to give a mild acid taste (1 ppb): 3; X: number of panels, acid taste reduced but piercing odor characteristic to aldehydes unpleasant (1 ppb): 4; A: number of panels, acid taste/acid smell extreme and cause irritation (1 ppt): 0; B: number of panels, acid taste/acid smell slightly strong and slightly cause irritation (1 ppt): 1; C: number of panels, acid taste/acid smell slightly unpleasant (1 ppt): 3; Flavor judgment: number of panels who judged acid taste/acid smell quality the highest (1 ppt): 2; N: number of panels, irritation of acid reduced to give a mild acid taste (1 ppt): 6; X: number of panels, acid taste reduced but piercing odor characteristic to aldehydes unpleasant (1 ppt): 0; A: number of panels, acid taste/acid smell extreme and cause irritation (5 ppt): 0; B: number of panels, acid taste/acid smell slightly strong and slightly cause irritation (5 ppt): 0; C: number of panels, acid taste/acid smell slightly unpleasant (5 ppt): 2; Flavor judgment: number of panels who judged acid taste/acid smell quality the highest (5 ppt): 4; N: number of panels, irritation of acid reduced to give a mild acid taste (5 ppt): 8; X: number of panels, acid taste reduced but piercing odor characteristic to aldehydes unpleasant (5 ppt): 0; A: number of panels, acid taste/acid smell extreme and cause irritation (10 ppb): 0; B: number of panels, acid taste/acid smell slightly strong and slightly cause irritation (10 ppb): 0; C: number of panels, acid taste/acid smell slightly unpleasant (10 ppb): 2; Flavor judgment: number of panels who judged acid taste/acid smell quality the highest (10 ppb): 0; N: number of panels, irritation of acid reduced to give a mild acid taste (10 ppb): 2; X: number of panels, acid taste reduced but piercing odor characteristic to aldehydes unpleasant (10 ppb): 6; A: number of panels, acid taste/acid smell extreme and cause irritation (20 ppt): 0; B: number of panels, acid taste/acid smell slightly strong and slightly cause irritation (20 ppt): 0; C: number of panels, acid taste/acid smell slightly unpleasant (20 ppt): 4; Flavor judgment: number of panels who judged acid taste/acid smell quality the highest (20 ppt): 3; N: number of panels, irritation of acid reduced to give a mild acid taste (20 ppt): 6; X: number of panels, acid taste reduced but piercing odor characteristic to aldehydes unpleasant (20 ppt): 0; A: number of panels, acid taste/acid smell extreme and cause irritation (50 ppb): 0; B: number of panels, acid taste/acid smell slightly strong and slightly cause irritation (50 ppb): 0; C: number of panels, acid taste/acid smell slightly unpleasant (50 ppb): 1; Flavor judgment: number of panels who judged acid taste/acid smell quality the highest (50 ppb): 0; N: number of panels, irritation of acid reduced to give a mild acid taste (50 ppb): 1; X: number of panels, acid taste reduced but piercing odor characteristic to aldehydes unpleasant (50 ppb): 8; A: number of panels, acid taste/acid smell extreme and cause irritation (100 ppt): 0; B: number of panels, acid taste/acid smell slightly strong and slightly cause irritation (100 ppt): 1; C: number of panels, acid taste/acid smell slightly unpleasant (100 ppt): 3; Flavor judgment: number of panels who judged acid taste/acid smell quality the highest (100 ppt): 0; N: number of panels, irritation of acid reduced to give a mild acid taste (100 ppt): 4; X: number of panels, acid taste reduced but piercing odor characteristic to aldehydes unpleasant (100 ppt): 2; A: number of panels, acid taste/acid smell extreme and cause irritation (500 ppt): 0; B: number of panels, acid taste/acid smell slightly strong and slightly cause irritation (500 ppt): 0; C: number of panels, acid taste/acid smell slightly unpleasant (500 ppt): 3; Flavor judgment: number of panels who judged acid taste/acid smell quality the highest (500 ppt): 0; N: number of panels, irritation of acid reduced to give a mild acid taste (500 ppt): 4; X: number of panels, acid taste reduced but piercing odor characteristic to aldehydes unpleasant (500 ppt): 3
